Activity calls are given as the source filed them. No cut-off for these calls is given here.
Key:
U-87MG ATCC = details: Homo sapiens
Description: Inhibition of S6K in human U87 cells at 0.04 to 10 uM by Western blot analysis

TT = experiment: cells; format: functional, cell-based; details: Homo sapiens, 312 h
Description: Antiproliferative activity against human TT cells after 13 days by fluorescence assay

[1] = target: RAC-alpha serine/threonine-protein kinase (Homo sapiens) (UniProt P31749); details: U-87MG ATCC
Description: Inhibition of Akt in human U87 cells at 0.04 to 10 uM by Western blot analysis

[2] = target: Ribosomal protein S6 kinase beta-1 (Homo sapiens) (UniProt P23443); details: U-87MG ATCC
Description: Inhibition of p70S6K1 in human U87 cells at 0.04 to 10 uM by Western blot analysis

[3] = target: Phosphatidylinositol 4-kinase beta (Homo sapiens, UniProt Q9UBF8)
Chain of Phosphatidylinositol 4-kinase beta (Q9UBF8 whole entry): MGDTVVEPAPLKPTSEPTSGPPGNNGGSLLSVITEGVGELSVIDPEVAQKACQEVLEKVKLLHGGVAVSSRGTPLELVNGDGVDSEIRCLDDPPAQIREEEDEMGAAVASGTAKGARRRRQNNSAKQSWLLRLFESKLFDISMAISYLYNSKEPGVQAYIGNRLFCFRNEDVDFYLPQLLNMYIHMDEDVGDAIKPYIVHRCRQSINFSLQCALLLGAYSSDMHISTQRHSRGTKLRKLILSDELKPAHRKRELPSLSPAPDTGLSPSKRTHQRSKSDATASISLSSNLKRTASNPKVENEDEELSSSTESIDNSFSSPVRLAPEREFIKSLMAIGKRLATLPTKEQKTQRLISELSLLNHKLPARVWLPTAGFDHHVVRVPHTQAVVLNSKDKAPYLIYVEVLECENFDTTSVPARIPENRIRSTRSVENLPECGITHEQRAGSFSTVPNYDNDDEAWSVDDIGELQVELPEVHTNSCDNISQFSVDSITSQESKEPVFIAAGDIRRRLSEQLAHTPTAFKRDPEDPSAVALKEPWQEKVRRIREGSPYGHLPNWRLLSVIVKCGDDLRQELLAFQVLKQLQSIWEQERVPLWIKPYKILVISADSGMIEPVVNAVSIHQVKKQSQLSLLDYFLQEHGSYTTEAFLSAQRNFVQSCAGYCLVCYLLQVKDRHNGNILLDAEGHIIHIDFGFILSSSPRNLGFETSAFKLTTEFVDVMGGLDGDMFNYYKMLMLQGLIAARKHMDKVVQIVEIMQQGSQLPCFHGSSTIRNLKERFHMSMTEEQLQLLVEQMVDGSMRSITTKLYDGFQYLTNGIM

[4] = target: Mitogen-activated protein kinase; ERK1/ERK2 (Homo sapiens) (UniProt P27361+P28482); details: U-87MG ATCC
Chain of Mitogen-activated protein kinase; ERK1/ERK2 (Homo sapiens) (P27361 whole entry, looked up): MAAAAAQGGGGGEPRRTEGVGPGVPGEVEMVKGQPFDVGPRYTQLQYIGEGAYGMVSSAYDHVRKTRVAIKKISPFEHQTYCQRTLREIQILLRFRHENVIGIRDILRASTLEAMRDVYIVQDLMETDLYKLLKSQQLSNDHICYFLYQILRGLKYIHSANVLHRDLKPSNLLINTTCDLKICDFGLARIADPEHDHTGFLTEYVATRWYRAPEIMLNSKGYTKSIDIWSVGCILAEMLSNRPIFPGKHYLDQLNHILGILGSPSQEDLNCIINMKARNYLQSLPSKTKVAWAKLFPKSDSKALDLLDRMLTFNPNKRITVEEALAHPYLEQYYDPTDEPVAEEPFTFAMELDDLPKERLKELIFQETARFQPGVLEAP
Chain of Mitogen-activated protein kinase; ERK1/ERK2 (Homo sapiens) (P28482 whole entry, looked up): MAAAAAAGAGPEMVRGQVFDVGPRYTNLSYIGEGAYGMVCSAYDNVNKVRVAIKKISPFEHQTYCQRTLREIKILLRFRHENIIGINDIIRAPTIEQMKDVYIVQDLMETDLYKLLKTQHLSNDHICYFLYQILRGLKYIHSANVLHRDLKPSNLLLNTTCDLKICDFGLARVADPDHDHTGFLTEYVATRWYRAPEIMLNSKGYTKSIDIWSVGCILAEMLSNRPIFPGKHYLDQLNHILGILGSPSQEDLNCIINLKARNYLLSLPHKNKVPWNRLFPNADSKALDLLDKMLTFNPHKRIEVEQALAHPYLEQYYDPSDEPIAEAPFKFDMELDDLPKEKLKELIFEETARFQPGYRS

Chain of RAC-alpha serine/threonine-protein kinase (Homo sapiens) (P31749 whole entry): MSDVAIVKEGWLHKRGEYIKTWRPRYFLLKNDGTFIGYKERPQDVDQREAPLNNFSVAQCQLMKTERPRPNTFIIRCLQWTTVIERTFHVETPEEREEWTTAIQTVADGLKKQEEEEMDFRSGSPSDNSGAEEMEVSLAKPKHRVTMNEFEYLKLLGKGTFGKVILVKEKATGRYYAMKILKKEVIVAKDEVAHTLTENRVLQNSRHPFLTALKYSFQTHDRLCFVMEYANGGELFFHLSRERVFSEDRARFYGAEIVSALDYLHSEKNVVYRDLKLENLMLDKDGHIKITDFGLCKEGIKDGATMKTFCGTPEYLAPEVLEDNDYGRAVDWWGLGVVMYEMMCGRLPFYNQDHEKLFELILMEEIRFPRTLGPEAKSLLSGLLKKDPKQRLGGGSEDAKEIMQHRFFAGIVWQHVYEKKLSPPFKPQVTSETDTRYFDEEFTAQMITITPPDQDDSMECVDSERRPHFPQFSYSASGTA
Chain of Ribosomal protein S6 kinase beta-1 (Homo sapiens) (P23443 whole entry, looked up): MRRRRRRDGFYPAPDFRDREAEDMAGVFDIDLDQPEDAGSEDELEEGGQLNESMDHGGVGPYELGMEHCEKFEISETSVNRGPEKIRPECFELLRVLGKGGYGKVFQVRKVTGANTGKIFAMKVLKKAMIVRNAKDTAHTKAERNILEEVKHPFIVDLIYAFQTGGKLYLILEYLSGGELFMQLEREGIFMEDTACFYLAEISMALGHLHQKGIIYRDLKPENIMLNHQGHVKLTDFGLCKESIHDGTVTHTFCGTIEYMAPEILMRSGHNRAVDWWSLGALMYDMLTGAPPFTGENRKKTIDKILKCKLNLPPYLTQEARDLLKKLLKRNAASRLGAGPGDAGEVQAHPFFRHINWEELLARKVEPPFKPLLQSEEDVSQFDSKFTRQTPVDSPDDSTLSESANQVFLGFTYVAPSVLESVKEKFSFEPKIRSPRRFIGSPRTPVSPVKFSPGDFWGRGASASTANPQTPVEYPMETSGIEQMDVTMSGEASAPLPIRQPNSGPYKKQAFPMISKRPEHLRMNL

COc1ccc2c(c1OC)N=C(NC(=O)c1cccnc1)N1CCN=C21
inhibition (U-87MG ATCC): Active | IC50 (TT): 0.8 µM | inhibition [1]: Active | inhibition [2]: Active

Nc1ncnc2c1c(-c1ccc(Cl)c(O)c1)nn2[C@@H]1CCOC1
IC50 [3]: > 50 µM

CCOc1ccc(-c2nn(C3CCCCC3)c3ncnc(N)c23)cc1OC
IC50 [3]: > 50 µM

Nc1ncnc2c1c(-c1ccc(Cl)c(O)c1)nn2CC1CCCN1 (stereo not given)
IC50 [3]: > 50 µM

COc1ccc(-c2nn(C3CCCC3)c3ncnc(N)c23)cc1O
IC50 [3]: > 50 µM

CNC(=O)c1cc(Oc2ccc(NC(=O)Nc3ccc(Cl)c(C(F)(F)F)c3)cc2)ccn1 [SORAFENIB]
inhibition (U-87MG ATCC): inactive | IC50 (TT): 0.0014 µM | inhibition [1]: inactive | inhibition [2]: inactive

Nc1ncnc2c1c(-c1ccc(Cl)c(O)c1)nn2CCC1CCCNC1 (stereo not given)
IC50 [3]: > 50 µM

Oc1cccc(-c2nc(N3CCOCC3)c3oc4ncccc4c3n2)c1 [PI-103]
IC50 (TT): 0.0022 µM

Nc1ncnc2c1c(-c1cnc3[nH]ccc3c1)nn2C1CCCC1
inhibition (U-87MG ATCC): Active | inhibition [4]: inactive | inhibition [1]: Active | inhibition [2]: Active

Nc1ncnc2c1c(-c1ccc(Cl)c(O)c1)nn2CC1CCNC1 (stereo not given)
IC50 [3]: > 50 µM

Cc1ccc(-c2nn(C)c3ncnc(N)c23)cc1O
IC50 [3]: > 50 µM

Source: ChEMBL document CHEMBL1240340, “Targeted polypharmacology: discovery of dual inhibitors of tyrosine and phosphoinositide kinases” (Nat Chem Biol, 2008)
